Test results as given in ChEMBL document CHEMBL2385011, “Optimization of a 1,5-dihydrobenzo[b][1,4]diazepine-2,4-dione series of HIV capsid assembly inhibitors 1: addressing configurational instability through scaffold modification” (Bioorg Med Chem Lett, 2013).

Assays:
[1] = target: Structural capsid protein (Human immunodeficiency virus 1, UniProt Q76129); experiment: Inhibition of HIV1 capsid-nucleocapsid assembly expressed in Escherichia coli BL21(DE3) after 2 hrs by fluorescence assay
[2] = test system: Human immunodeficiency virus 1; experiment: Antiviral activity against HIV1 infected in human C8166 cells expressing LTR after 3 days by luciferase reporter gene assay; format: functional, organism-based; conditions: Human immunodeficiency virus 1, C8166, 72 h
[3] = Cytotoxicity against human C8166 cells; format: cell-based
[4] = target: Structural capsid protein (Human immunodeficiency virus 1) (UniProt Q76129); experiment: Inhibition of HIV1 capsid-nucleocapsid assembly expressed in Escherichia coli BL21(DE3) at 3.5 uM after 2 hrs by fluorescence assay relative to control
Structural capsid protein (Human immunodeficiency virus 1), sequence (Q76129 as listed by the source): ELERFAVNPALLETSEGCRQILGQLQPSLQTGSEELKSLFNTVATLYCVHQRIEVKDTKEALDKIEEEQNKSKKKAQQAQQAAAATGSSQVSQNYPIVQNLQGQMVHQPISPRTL

Structural capsid protein, sequence (Q76129 whole entry): as the sequence (Q76129 as listed by the source) above

Row | SMILES | IC50 [1] | EC50 [2] | CC50 [3] | inhibition [4]
1 | CCN1C(=O)C2(CC(=O)c3cc(O)ccc32)C(=O)N(c2ccccc2)c2cc(C(F)(F)F)ccc21 (stereo unspecified) | 1500 nM | – | – | –
2 | CCN1C(=O)C(c2ccccc2)C(=O)N(c2ccccc2)c2cc(C(F)(F)F)ccc21 (stereo unspecified) | 730 nM | 2600 nM | – | –
3 | CCN1C(=O)C2(CCc3c(O)cccc32)C(=O)N(c2ccccc2)c2cc(C(F)(F)F)ccc21 (stereo unspecified) | 240 nM | 780 nM | > 21000 nM | –
4 | CCN1C(=O)C2(CCc3ccccc32)C(=O)N(c2ccccc2)c2cc(C(F)(F)F)ccc21 (stereo unspecified) | 460 nM | 1600 nM | > 16000 nM | –
5 | CCN1C(=O)C2(CCc3cc(O)ccc32)C(=O)N(c2ccccc2)c2cc(C(F)(F)F)ccc21 (stereo unspecified) | 210 nM | 690 nM | 32000 nM | –
6 | CCN1C(=O)N(c2ccccc2)C(=O)N(c2ccccc2)c2cc(C(F)(F)F)ccc21 | 630 nM | 600 nM | > 4000 nM | –
7 | CCN1C(=O)C2(CCc3ccc(O)cc32)C(=O)N(c2ccccc2)c2cc(C(F)(F)F)ccc21 (stereo unspecified) | 590 nM | 1200 nM | > 27000 nM | –
8 | CCN1C(=O)C2(CC(C(C)C)c3cc(O)ccc32)C(=O)N(c2ccccc2)c2cc(C(F)(F)F)ccc21 (stereo unspecified) | 1100 nM | – | – | –
9 | CCN1C(=O)N(c2ccc(C)cc2)C(=O)N(c2ccccc2)c2cc(C(F)(F)F)ccc21 | 190 nM | 540 nM | > 6500 nM | –
10 | CN1C(=O)C(C)(c2ccccc2)C(=O)N(c2ccccc2)c2cc(C(F)(F)F)ccc21 (stereo unspecified) | – | – | – | 8%
11 | CCN1C(=O)C2(CC(C)c3cc(O)ccc32)C(=O)N(c2ccccc2)c2cc(C(F)(F)F)ccc21 (stereo unspecified) | 290 nM | – | – | –
12 | CCN1C(=O)N(c2ccc(O)cc2)C(=O)N(c2ccccc2)c2cc(C(F)(F)F)ccc21 | 50 nM | 380 nM | 35000 nM | –
13 | CCN1C(=O)C2(CC(N)c3cc(O)ccc32)C(=O)N(c2ccccc2)c2cc(C(F)(F)F)ccc21 (stereo unspecified) | 3600 nM | – | – | –
14 | CN1C(=O)C2(CCc3cc(N)ccc32)C(=O)N(c2ccccc2)c2cc(C(F)(F)F)ccc21 (stereo unspecified) | 160 nM | 410 nM | > 15000 nM | –
15 | CN1C(=O)C2(CCc3cc(NC(=O)[C@@H]4CCCN4)ccc32)C(=O)N(c2ccccc2)c2cc(C(F)(F)F)ccc21 (stereo partly specified) | 110 nM | 520 nM | 11000 nM | –
16 | CCN1C(=O)N(c2cccc(C(=O)NCCN3CCOCC3)c2)C(=O)N(c2ccccc2)c2cc(C(F)(F)F)ccc21 | 220 nM | 1100 nM | > 19000 nM | –
17 | CN1C(=O)C(c2ccccc2)C(=O)N(c2ccccc2)c2cc(C(F)(F)F)ccc21 (stereo unspecified) | 680 nM | – | – | –
18 | CCN1C(=O)N(c2ccc(C(=O)NC)cc2)C(=O)N(c2ccccc2)c2cc(C(F)(F)F)ccc21 | 130 nM | 480 nM | 31000 nM | –
19 | CCN1C(=O)C2(CC(O)c3cc(O)ccc32)C(=O)N(c2ccccc2)c2cc(C(F)(F)F)ccc21 (stereo unspecified) | 2100 nM | – | – | –
20 | CCN1C(=O)N(c2cc(C)c(O)c(Cl)c2)C(=O)N(c2ccccc2)c2cc(C(F)(F)F)ccc21 | 60 nM | 150 nM | > 10000 nM | –
21 | CCN1C(=O)C2(CCc3cc(OC)ccc32)C(=O)N(c2ccccc2)c2cc(C(F)(F)F)ccc21 (stereo unspecified) | 160 nM | 510 nM | > 4000 nM | –
22 | CCN1C(=O)N(c2cccc(C(=O)NC)c2)C(=O)N(c2ccccc2)c2cc(C(F)(F)F)ccc21 | 280 nM | 1200 nM | > 22000 nM | –
23 | CCN1C(=O)N(c2ccc(O)c(C)c2)C(=O)N(c2ccccc2)c2cc(C(F)(F)F)ccc21 | 90 nM | 260 nM | 17000 nM | –
24 | CCN1C(=O)N(c2cccc(OC)c2)C(=O)N(c2ccccc2)c2cc(C(F)(F)F)ccc21 | 210 nM | 1200 nM | > 20000 nM | –
25 | CCN1C(=O)N(c2ccc(OC)cc2)C(=O)N(c2ccccc2)c2cc(C(F)(F)F)ccc21 | 180 nM | 720 nM | > 16000 nM | –
26 | CCC1CC2(C(=O)N(CC)c3ccc(C(F)(F)F)cc3N(c3ccccc3)C2=O)c2ccc(O)cc21 (stereo unspecified) | 730 nM | – | – | –
